Measurements: the NIST ThermoML archive (doi:10.1016/j.jct.2005.04.018)

Settings: Liquid, Vibrating tube method

CCCCCC[n+]1ccn(C)c1.O=S(=O)([N-]S(=O)(=O)C(F)(F)F)C(F)(F)F
mass density [kg/m3]
Settings | 298.15 K | 299.15 K | 300.15 K | 301.15 K | 302.15 K | 303.15 K | 308.15 K | 313.15 K
100 kPa | 1370.81 | 1369.96 | 1368.97 | 1368.11 | 1367.15 | 1366.24 | 1361.65 | 1357.01
1830 kPa | 1372.13 | 1371.27 | 1370.29 | 1369.42 | 1368.47 | 1367.56 | 1362.96 | 1358.32
10020 kPa | 1378.18 | 1377.3 | 1376.36 | 1375.49 | 1374.56 | 1373.64 | 1369.05 | –
14980 kPa | 1381.7 | 1380.81 | 1379.86 | 1379.01 | 1378.1 | 1377.17 | 1372.62 | –
19750 kPa | 1384.98 | 1384.12 | 1383.21 | 1382.28 | 1381.43 | 1380.47 | 1375.95 | –
25860 kPa | 1389.1 | 1388.22 | 1387.32 | 1386.44 | 1385.56 | 1384.59 | 1380.12 | –
31480 kPa | 1392.73 | 1391.88 | 1391 | 1390.11 | 1389.24 | 1388.3 | 1383.86 | –
37770 kPa | 1396.74 | 1395.86 | 1395.01 | 1394.07 | 1393.28 | – | 1387.93 | –
44170 kPa | 1400.64 | 1399.77 | 1398.88 | 1398.06 | 1397.22 | 1396.31 | 1391.98 | –
50750 kPa | 1404.48 | 1403.7 | 1402.84 | 1401.99 | 1401.19 | 1400.29 | 1396.05 | –
59590 kPa | 1409.53 | 1408.77 | 1407.93 | 1407.14 | 1406.37 | 1405.51 | 1401.4 | –
